From PMC12812009, “Optimization of 4‐Amino‐2‐Pyridone Inhibitors of Proprotein Convertase Subtilisin/Kexin Type 9: Integrating Structure–Activity and Structure–Metabolism Relationships” (Chemmedchem, 2025)
Like-named read-outs stand apart in the source and are kept apart here.

What was measured:
Type in all cases: cell-based, human
[1] = MTT cell viability assay in HepG2 cell cultures; settings: human, HepG2 cells, MTT
Procedure: The approach we set‐up to test the new PCSK9i was based on functional assay, which evaluated at the same time compounds cytotoxicity, and their effect on the secreted PCSK9 on the same cell line. First, cell viability was evaluated in HepG2 cell cultures using the MTT assay (CC50 values are reported in Table 1 and Figure 5 ) after 24 h of incubation in starving conditions (0.4% fetal bovine serum (FBS)). The low FBS concentration, and thus low extracellular lipoproteins, stimulates the sterol responsive element binding protein (SREBP) pathway, inducing the expression of LDLR, PCSK9, HMG‐CoA reductase,^[ [28] ^] thus increasing the uptake of exogenous cholesterol and enhancing the synthesis of endogenous cholesterol. This first step allowed us to calculate the CC50 and identify the noncytotoxic concentrations (viability higher than 90%; Table 1), then tested for PCSK9 inhibitory activity.
Cell viability was assessed using the MTT assay. Cells were seeded in 96‐well plates (2.5 × 10^4 cells/well) in MEM supplemented with 10% v/v FBS and incubated for 24 h. The cells were then treated with the synthesized compounds dissolved in DMSO at increasing concentrations (from 0.5 to 50 µM) in MEM supplemented with 0.4% v/v FBS for 24 h. Simvastatin [20 and 40 µM] and BBR [10 µM] (both from Merck, St. Louis, Missouri, USA) were used as internal controls as PCSK9 inducer and inhibitor, respectively.^[ [21] ^, [34] ^, [35] ^] The cells were then incubated for 2 h with a solution of MTT [1 mg mL^–1] in MEM supplemented with 0.4% v/v FBS, away from light sources. The supernatant was then collected and 200 µL of DMSO was added to each well to solubilize the newly formed formazan. Finally, an aliquot of 100 µL was taken to measure the absorbance at a wavelength of 570 nm using an absorbance microplate reader (Spark Tecan, Switzerland). Every experimental condition was run in duplicate and the average cell viability and standard deviation was calculated. Cell viability was expressed as the percentage of treated cells compared to untreated (basal) cells. CC50 values for each compound were calculated by interpolating the percentage of cell viability through nonlinear regression analysis of the log (inhibition) versus response using GraphPad Prism software version 8.0 (GraphPad Software Inc., La Jolla, CA).

PCSK9 mRNA = PCSK9 mRNA expression in HepG2 cells by RTqPCR; settings: 24 h incubation, increasing concentrations
Procedure: To further investigate the mechanism of action of these compounds, we evaluated the PCSK9 mRNA levels after 24 h incubation with increasing concentrations of 5c, 6b, and 7.
Total RNA was extracted using the iScript RT‐qPCR Sample Prep reagent (Bio‐Rad), according to the manufacturer's instructions. QuantiNova SYBR Green RT‐PCR Kit (QIAGEN, Hilden, Germany) was used for qPCR, along with specific primers for 18S (FWD 5′‐[…]‐3′, REV 5′‐[…]‐3′) PCSK9 (FWD 5′‐CCTGCGCGTGCTCAACT‐3′, REV 5′‐[…]‐3′). The analyses were performed with the CFX96 Touch Real‐Time PCR Detection System (Bio‐Rad) with cycling conditions of 45 °C for 10 min, 95 °C for 5 min, and a repetition of 40 cycles at 95 °C for 5 s followed by 30 s at 60 °C. The data were expressed as Ct values and used for relative quantification of targets with ΔΔCt calculations. The ΔΔCt values were determined by multiplying the ratio value between the efficiency of specific primers and housekeeping 18S. The efficiency was calculated as ((10(‐1/slope))−1) × 100.

secreted PCSK9 = assay: PCSK9 secretion in culture medium, ELISA on HepG2 supernatants; settings: for IC50: HepG2, Table S2, ELISA, non-cytotoxic concentrations, read-out: IC50 ± SD on PCSK9 secreted by HepG2; for decrease of secreted PCSK9 vs. basal: given as decrease
Procedure: Next, the levels of secreted PCSK9 were quantified by ELISA assay (Figure 5) only on supernatants collected from cells treated with noncytotoxic concentrations of each compound, as reported in Table 1. Simvastatin (Simva) at 20 and 40 μM and berberine (BBR) at 10 μM were included as controls. As described in the literature, simvastatin induces PCSK9 expression as a compensatory mechanism in response to its cholesterol‐lowering effects, being a pharmacological competitor for HMG‐CoA reductase, the rate‐limiting enzyme of the cholesterol biosynthetic pathway.^[ [29] ^] In contrast, BBR, a natural compound, reduces the expression of PCSK9 levels through transcriptional inhibition, thus increasing the LDLR availability on plasma membrane.^[ [30] ^] As additional and distinct mechanism to the latter, BBR is also able to stabilize the transcript of LDLR, thus increasing its half‐life.^[ [31] ^] As expected, cells stimulated with simvastatin released more PCSK9 into the culture medium compared to unstimulated cells, with a statistically significant concentration‐dependent effect (+73% at 20 μM, p < 0.01; +200% at 40 μM, p < 0.0001), while BBR at 10 μM decreased PCSK9 levels in the medium more than 50% (p < 0.0001 vs. basal) (Figure 5).^[ [32] ^] The amount of PCSK9 secreted into the culture media was measured with an appropriate ELISA kit (R&D System, DY3888 and DY008B2) on the supernatants collected during the MTT assay. Every experimental condition was run in duplicate and the average PCSK9 secretion and standard deviation was calculated. A 4PL regression analysis was used to interpolate unknowns with the standard curve using GraphPad Prism v10.2, according to manufacturers’ instructions. The data were normalized onto the corresponding cell viability, and IC50 was then calculated using GraphPad Prism v10.2.

[2] = printed in Figures 5 and 8, HepG2, 24 h, read-out: CC50
[3] = Homo sapiens, 10 μM, HepG2, 24 h, read-out: secreted PCSK9 change vs. basal

| Compound | CC50 at 24 h [1, 2] | PCSK9 mRNA expression (in words) (PCSK9 mRNA) | IC50 (secreted PCSK9; Homo sapiens) | CC50 at 24 h ([1]; 24 h incubation, HepG2, 0.4% FBS, 0.5-50.0 μM, read-out: CC50 (CI 95%)) | inhibition at 5 µM (secreted PCSK9; Homo sapiens, 5 μM, HepG2, 24 h, read-out: secreted PCSK9 change vs. basal) | inhibition at 10 µM (secreted PCSK9; [3]) | decrease of secreted PCSK9 vs. basal (secreted PCSK9; 10 μM, HepG2, 24 h) | decrease of secreted PCSK9 vs. basal (secreted PCSK9; 25 μM, HepG2, 24 h) |
| --- | --- | --- | --- | --- | --- | --- | --- | --- |
| Cc1cc(NCc2ccc(C(F)(F)F)cc2)cc(=O)n1Cc1ccc(C(F)(F)F)cc1 [Compound 5c] | 32.4 µM | strongly suppressed the PCSK9 mRNA expression | 1.7 ± 0.67 µM |  |  |  |  |  |
| Cc1cc(NCc2ccc(C(F)(F)F)cc2)c(Br)c(=O)n1Cc1ccc(C(F)(F)F)cc1 [Compound 6b, 3‐Bromo‐6‐Methyl‐1‐(4‐(Trifluoromethyl)Benzyl)‐4‐((4‐(Trifluoromethyl)Benzyl)Amino)pyridin‐2(1H)‐One] |  | strongly suppressed the PCSK9 mRNA expression | 2.6 ± 1.61 µM | 27 µM | 75% | 90% |  |  |
| Cc1cc2c(sc(=N)n2Cc2ccc(C(F)(F)F)cc2)c(=O)n1Cc1ccc(C(F)(F)F)cc1 [Compound 7, 2‐Imino‐6‐Methyl‐1,5‐Bis(4‐(Trifluoromethyl)benzyl)‐1,2‐Dihydrothiazolo[5,4‐c]pyridin‐4(5H)‐One] | > 50 µM | strongly suppressed the PCSK9 mRNA expression | 4.1 ± 0.36 µM |  |  | 74% | 74% | 90% |
